Experiment [1] relates to H9c2. Nature of the experiment: Cytoprotective activity against H2O2-induced oxidative damage in rat H9c2 cells assessed as cell viability at 20 uM preincubated for 24 hrs followed by H2O2 treatment for another 1.5 hrs by MTT assay (reference value: 32.52 to 44.40%). It counts as functional. The note with it: time 25.5 hrs, read-out: Activity. On the technique in general: Formazan colour is commonly taken as a measure of viable cells.

Experiment [2] relates to H9c2. Nature of the experiment: Cytoprotective activity against H2O2-induced oxidative damage in rat H9c2 cells assessed as fold reduction in cell viability at 20 uM preincubated for 24 hrs followed by H2O2 treatment for another 1.5 hrs by MTT assay. The note with it: time 25.5 hrs. Type of experiment: functional.

SMILES strings stand for the structures.

The values below come from ChEMBL document CHEMBL5338705, “Discovery of 1,3,4-oxadiazole derivatives containing a bisamide moiety as a novel class of potential cardioprotective agents” (Eur J Med Chem, 2022).

On to `O=C(CSc1nnc(-c2ccccc2Cl)o1)NC(=O)Nc1ccccn1`, for which the viability at 20 µM in the experiment with H9c2 [1] was 42.6%. Moreover, the “fold change (FC)” value in the experiment with H9c2 [2] is 0.96.
In the same order, the values of `COc1cc(NC(=O)NC(=O)CSc2nnc(-c3ccccc3)o2)cc(OC)c1OC` are 43% and 1.3.
Turning to `O=C(CSc1nnc(-c2ccc(Cl)cc2)o1)NC(=O)Nc1ccccn1`, in the experiment on H9c2 [1], the viability at 20 µM was determined as 54.9%. The “fold change (FC)” value with H9c2 [2] is recorded as 1.24.
As to `COc1ccc(NC(=O)NC(=O)CSc2nnc(-c3ccccc3)[nH]2)cc1`, the viability at 20 µM with H9c2 [1] was 64.4%. The “fold change (FC)” value in the experiment with H9c2 [2] is reported as 1.69.
The like results for `O=C(CSc1nnc(-c2ccc(O)cc2)o1)NC(=O)Nc1ncccn1` were, in that order, 59.1% and 1.49.
In the same order, the values of `O=C(CSc1nnc(-c2ccc(O)cc2)o1)NC(=O)NN1CCOCC1` are 44.2% and 1.12.
In the same order, the values of `CC(C)c1ccc(NC(=O)NC(=O)CSc2nnc(-c3ccccc3)o2)cc1` are 38.9% and 1.18.
Regarding `Cc1ccccc1-c1nnc(SCC(=O)NC(=O)Nc2ccccn2)o1`, the viability at 20 µM in the experiment with H9c2 [1] is 66.5%. Also, the “fold change (FC)” value with H9c2 [2] turned out to be 1.5.
In the same order, the values of `COc1ccccc1NC(=O)NC(=O)CSc1nnc(-c2ccccc2)o1` are 47% and 1.43.
The like results for `O=C(CSc1nnc(-c2ccccn2)o1)NC(=O)Nc1ccccn1` were, in that order, 54% and 1.22.
In the same order, the values of `O=C(CSc1nnc(-c2ccccc2)o1)NC(=O)Nc1ccccc1` are 52.9% and 1.32.
With `O=C(CSc1nnc(-c2ccccc2)o1)NC(=O)Nc1ccccn1`, the viability at 20 µM in the experiment on H9c2 [1] was found to be 72.5%. For the same compound, the “fold change (FC)” value with H9c2 [2] is on record as 1.79.
In the same order, the values of `O=C(CSc1nnc(-c2cccc(Cl)c2)o1)NC(=O)Nc1ccccn1` are 48.4% and 1.09.
As to `O=C(CSc1nnc(-c2ccc(O)cc2)o1)NC(=O)Nc1nccs1`, the viability at 20 µM with H9c2 [1] was found to be 36.8%. Also, the “fold change (FC)” value in the experiment on H9c2 [2] is 0.93.
With `Cc1ccc(NC(=O)NC(=O)CSc2nnc(-c3ccccc3)o2)cc1`, in the experiment with H9c2 [1], the viability at 20 µM turned out to be 54.8%. For the same compound, the “fold change (FC)” value with H9c2 [2] came out at 1.67.
The like results for `Cc1cccc(-c2nnc(SCC(=O)NC(=O)Nc3ccccn3)o2)c1` were, in that order, 53.5% and 1.21.
In the same order, the values of `O=C(CSc1nnc(-c2ccccc2)o1)NC(=O)Nc1ccc(Cl)cc1` are 37.6% and 1.14.
In the same order, the values of `COc1ccc(NC(=O)CSc2nnc(-c3ccccc3)o2)cc1` are 52.6% and 1.46.
In the case of `O=C(CSc1nnc(-c2ccc(O)cc2)o1)NC(=O)Nc1cccnc1`, in the experiment with H9c2 [1], the viability at 20 µM turned out to be 64.8%. In addition, the “fold change (FC)” value in the experiment with H9c2 [2] is 1.64.
The like results for `O=C(CSc1nnc(-c2cccc(Cl)c2)o1)NC(=O)Nc1ccccc1` were, in that order, 42.5% and 1.01.
In the case of `O=C(CSc1nnc(-c2ccc(O)cc2)o1)NC(=O)NN1CCCCC1`, the viability at 20 µM in the experiment with H9c2 [1] was found to be 29.2%. Further, in the experiment on H9c2 [2], the “fold change (FC)” value came out at 0.74.
In the case of `O=C(CSc1nnc(-c2ccccc2)o1)NC(=O)Nc1ccccc1Cl`, in the experiment on H9c2 [1], the viability at 20 µM is 34.5%. Besides, in the experiment on H9c2 [2], the “fold change (FC)” value is given as 1.05.
In the same order, the values of `O=C(CSc1nnc(-c2ccccc2)o1)Nc1ccccc1` are 46.6% and 1.09.
The like results for `O=C(CSc1nnc(-c2ccccc2)o1)Nc1ccccn1` were, in that order, 41.4% and 0.97.
The like results for `O=C(CSc1nnc(-c2ccccn2)o1)NC(=O)Nc1ccccc1` were, in that order, 35.5% and 0.85.
As for `O=C(CSC(=S)N1CCNCC1)NC(=O)Nc1ccccc1`, in the experiment with H9c2 [1], the viability at 20 µM amounted to 41.1%. Moreover, the “fold change (FC)” value with H9c2 [2] amounted to 1.03.
The like results for `O=C(CSc1nnc(-c2cccnc2)o1)NC(=O)Nc1ccccc1` were, in that order, 39.2% and 0.93.
The like results for `COc1ccc(NC(=O)NC(=O)CSc2nnc(-c3ccc(O)cc3)o2)cc1` were, in that order, 60.5% and 1.68.
The like results for `O=C(CSc1nnc(-c2ccc(O)cc2)o1)Nc1ccccn1` were, in that order, 55.3% and 1.54.
`O=C(CSc1nnc(-c2ccccc2O)o1)NC(=O)Nc1ccccc1`: the viability at 20 µM in the experiment with H9c2 [1] was 60.7%. The “fold change (FC)” value in the experiment with H9c2 [2] is given as 1.45.
The like results for `Cc1ccc(-c2nnc(SCC(=O)NC(=O)Nc3ccccn3)o2)cc1` were, in that order, 70.9% and 1.6.
In the same order, the values of `O=C(CSc1nnc(-c2ccc(Cl)cc2)o1)NC(=O)Nc1ccccc1` are 51.5% and 1.23.
As for `Cc1cccc(-c2nnc(SCC(=O)NC(=O)Nc3ccccc3)o2)c1`, the viability at 20 µM with H9c2 [1] was found to be 46.7%. Besides, the “fold change (FC)” value with H9c2 [2] came out at 1.11.
Take `COc1ccc(NC(=O)CSc2nnc(-c3ccc(O)cc3)o2)cc1`: in the experiment with H9c2 [1], the viability at 20 µM is 42.9%. Moreover, the “fold change (FC)” value in the experiment on H9c2 [2] stood at 1.
The like results for `O=C(CSc1nnc(-c2ccccc2)o1)NC(=O)Nc1cccc(Cl)c1` were, in that order, 34% and 1.03.
As for `O=C(CSc1nnc(-c2ccc(O)cc2)o1)NC(=O)Nc1ccccn1`, the viability at 20 µM with H9c2 [1] is 85.2%. Besides, in the experiment with H9c2 [2], the “fold change (FC)” value is 1.92.
In the same order, the values of `O=C(CSc1nnc(-c2ccc(O)cc2)o1)NC(=O)Nc1ccccc1` are 71.7% and 1.71.
The like results for `O=C(CSc1nnc(-c2cccnc2)o1)NC(=O)Nc1ccccn1` were, in that order, 40.5% and 0.91.
In the same order, the values of `Cc1ccc(-c2nnc(SCC(=O)NC(=O)Nc3ccccc3)o2)cc1` are 57.7% and 1.38.
`O=C(CSc1nnc(-c2ccncc2)o1)NC(=O)Nc1ccccn1`: the viability at 20 µM with H9c2 [1] was 45.3%. In addition, in the experiment with H9c2 [2], the “fold change (FC)” value is on record as 1.02.
In the same order, the values of `COCCCNC(=O)NC(=O)CSc1nnc(-c2ccc(O)cc2)o1` are 69.5% and 1.76.
The like results for `O=C(CSc1nnc(-c2ccccc2O)o1)NC(=O)Nc1ccccn1` were, in that order, 65.7% and 1.48.
With `O=C(Cn1cc(CSc2nnc(-c3ccc(O)cc3)o2)nn1)NC(=O)Nc1ccccn1`, the viability at 20 µM in the experiment with H9c2 [1] was 18.7%. In addition, the “fold change (FC)” value with H9c2 [2] is on record as 0.52.
The like results for `O=C(CSc1nnc(-c2ccccc2Cl)o1)NC(=O)Nc1ccccc1` were, in that order, 40.9% and 0.98.
In the same order, the values of `COc1ccc(NC(=O)NC(=O)Cn2cc(CSc3nnc(-c4ccccc4)o3)nn2)cc1` are 18.4% and 0.51.
The like results for `O=C(CSc1nnc(-c2ccncc2)o1)NC(=O)Nc1ccccc1` were, in that order, 48.5% and 1.16.
In the case of `Cc1ccccc1-c1nnc(SCC(=O)NC(=O)Nc2ccccc2)o1`, in the experiment with H9c2 [1], the viability at 20 µM was determined as 56%. For the same compound, in the experiment with H9c2 [2], the “fold change (FC)” value stood at 1.34.
